What all share (assay type): physicochemical
Data set [1] is described as follows: Kinetic dissolution experiment: 1 g in 50 mL water, filtered at 1 and 5 minutes. On the procedure: In order to expand on the results of the aforenoted experiments, a kinetic experiment was conducted to examine the change in the dissolution rate over short time periods.
1 g of sample was added to 50 mL water in a flask with a magnetic stir bar on a stirrer set at constant speed. Separate samples were filtered at 1 and 5 minutes. The pre-weighed filter papers (Whateman 41, particle retention 20-25 μm) were allowed to dry and the amount of sample remaining on the filter paper was determined.

The nature of data set [2]: Solubility test: powder added to stirred water until saturated, gravity filtered, dry residue on filter paper weighed. Particulars: Whatman 41 filter paper, particle retention 20-25 μm.
Method: In order to test the capacity of fine-milling to improve the rate bioavailability of substances, a simple test was performed. The test was conceived to mimic various elements involved in the processes of oral administration of a nutritional supplement. The key parameters involved were rate of dissolution and solubility, as it is understood that an ingested nutrient must be dissolved or reduced to a bio-transportable size in order to be utilized biochemically by the body.
The rates of dissolution and solubility of regular common nutritional supplements were compared to fine-milled versions within a fixed time. […] 100 mL of water was added to a 250 mL beaker and a magnetic stirring bar was placed in the beaker. The beaker was placed on a magnetic stirrer and stirred with low speed. 1 g of a given supplemental dietary ingredient powder was added incrementally to the beaker with the stirring speed constant until the solution visually appeared saturated. The solution was filtered by gravity through a pre-weighed filter paper (Whatman 41, particle retention 20-25 μm). […]
The ‘Fold Change’ represents the change in the amount of substance unable to pass through the filter as calculated by the amount of unfiltered regular substance divided by the amount of unfiltered fine-milled substance and represents the potential theoretical improvement in bioavailability.
A short description of data set [3]: Time to dissolve in stirred water, estimated by visual inspection. Particulars: for Time taken to dissolve: 100 mL water, constant stirring. On the procedure: In order to determine the effect of fine-milling on the dissolution rate, initial testing was performed to examine the rate of dissolution of common supplemental dietary ingredients. For the purposes of this disclosure, the term “regular” as used herein makes reference to non-fine-milled particles. 100 mL of water was placed into a 250 mL beaker and a magnetic stirrer bar was added to the beaker. The beaker was then placed on a magnetic stirrer was set to constant speed. […] The time required to dissolve was estimated by visual inspection. Equal amounts of the fine-milled ingredients were then added to the water and the time required to dissolve was estimated by visual inspection.

SMILES strings stand for the structures. “Also recorded” adds a separate entry of the source.

Consider `CN(CC(=O)O)C(=N)N.O` [Creatine Monohydrate], for which the “weight of unfiltered sample” value in data set [1] (Fine-milled, 1-minute interval, Monohydrate) came to 0.33 g; in data set [1] (Fine-milled, 1-minute interval, listed as creatine, Monohydrate) it was 0.32 g; in data set [1] (Fine-milled, 5-minute interval), 0.27 g; in data set [1] (Regular, 1-minute interval, listed as Creatine monohydrate, Monohydrate), 0.32 g; in data set [1] (Regular, 1-minute interval, listed as creatine, Monohydrate), 0.33 g; in data set [1] (Regular, 5-minute interval), 0.40 g. The “Dry Powder On Filter” value in data set [2] (Fine-milled powder) is 0.01 g; in data set [2] (Regular powder), 0.19 g. The “Time taken to dissolve” value is given as less than 5 min in data set [3] (Fine-milled powder, same amount as regular) and less than 5 min in data set [3] (Regular (non-milled) powder). Besides, the “Rate of dissolving, fine-milled compared with regular (in words)” value in data set [3] (Monohydrate) is “appeared to dissolved at the same rate in both the fine-milled and regular formats; also recorded: did not display a difference dependent on particle size”.

(Values after patent publication US20070202166A1, “Method for increasing the rate and consistency of bioavailability of supplemental dietary ingredients” (priority 2006, published 2007).)
